Data on one molecule can be found in patent US20250179024A1, “AMYLOID AND ASSOCIATED PATHOLOGY MODULATORS AND METHODS THEREOF” (Jawaharlal Nehru Centre for Advanced Scientific Research, priority 2022, published 2025).

Each structure is given as a SMILES string.

Data set [1] concerns the target T1, Aβ in the presence of Zn (II) (Homo sapiens, UniProt P05067).
T1 construct: is a 42 amino acid proteolytic product from the amyloid precursor protein; purchased Invitrogen
Kind of data set: Zn-dependent Aβ aggregation, native PAGE and western blot. The format is biochemical. The note with it: Aβ 10 μM, Zn (II) 20 μM, NMIs 20 μM, 37° C., 48 h. As for the experimental part:
The samples were prepared by incubating Aβ42 with specific concentration of NMI compounds of present disclosure and metal ions for 48 h and then subjected to 6% native polyacrylamide gel electrophoresis (Native-PAGE) in tris-glycine buffer. The lower molecular weight aggregates permeabilized through the gel and resolved in the gel. Higher molecular aggregates stuck in the upper part of wells and potentially carried in gel. Then the protein was transferred to PVDF membrane for 4 h at cold condition maintained using ice cold transfer buffer and immersing the transfer apparatus in ice. Then the blots were continued similar to dot blots.
The absorbance and fluorescence spectroscopy studies together with mass spectrometry data confirmed the selective Cu (II) or Zn (II) chelation property of M1 and M3. […] Aβ (10 μM) was incubated in the presence of Cu (II) or Zn (II) (20 μM) with NMIs at 37° C. for 48 h and the samples were subjected to native PAGE and western blot analysis. […] Modulation of Zn-dependent Aβ aggregation by M4 was attributed to its two Zn (II) chelation centres. M3 with dopamine and DPA moieties effectively modulated both Cu (II) and Zn (II)-dependent Aβ aggregation. The effect of NMIs on the morphological outcome of metal-dependent Aβ aggregation was visualized by AFM imaging (FIGS. 1E and 1F). Aβ in the presence of Cu (II) and Zn (II) formed dense and thick fibrils.
On the technique in general: Immunoblotting shows a protein as a band on a membrane.

The test system of data set [2] is SH-SY5Y cells. Briefly: Cell rescue from Cu (II)-dependent Aβ toxicity (MTT). The format is cell-based. As for the experimental part: (§1) Cell rescue from Aβ toxicity by NMIs were assessed in SH-SY5Y cells. The cells were seeded into 96 well plate at cell density of 25,000 cells per well and after 24 h the media was replaced with DMEM-F12 with low serum (2.5% FBS). After 6 h, cells were treated with Aβ (10 μM) alone and with NMIs (20 μM) in low serum media. Different concentrations of compound (10, 20 and 50 μM) were used to treat cells. For metal dependent studies, Aβ (10 μM) with metals (20 μM) in the absence and presence of NMIs (20 μM) was treated. The cells were incubated for 30 h and MTT assay was performed to calculate the percentage cell viability.
(§2) Further, the effect of concentration of compounds of the present disclosure on the cell rescue was assessed. […] The ability of NMIs to rescue cells from metal-dependent Aβ toxicity were assessed in the presence of Cu (II) and Zn (II). Cells were treated with Aβ (10 μM) along with metal ions (20 μM) and NMIs (20 μM) for 30 h. Aβ in the presence of Cu (II) reduced cell viability to ˜62% and M3 treatment had rescued cells with viability to 85% (FIG. 12C). Aβ with Zn (II) viability reduced to ˜61% and M3 treatment rescued cells by improving the viability to ˜79% (FIG. 12D). […] These in-cellulo experiments confirmed the ability of M3 to effectively rescue neuronal cells from metal-independent and dependent Aβ toxicity.

Data set [3] concerns SH-SY5Y cells. Briefly: Cell rescue from Zn (II)-dependent Aβ toxicity (MTT). It is filed as cell-based. The note with it: Aβ 10 μM, Zn (II) 20 μM, NMIs 20 μM, 30 h; without compound ~61%. As for the experimental part:
as §1, §2

For data set [4], the system named is SH-SY5Y cells. Briefly: Imaging of mitochondrial structural changes, Mito-TG. The format is cell-based. The note with it: Aβ 20 μM, 18 h, Mito-TG staining. As for the experimental part: The effect of NMIs (M3) on Aβ induced structural damage to mitochondria was assessed and Mito-TG probe was used for imaging mitochondria. SH-SY5Y cells were seeded onto confocal dishes and incubated for 24 h. Then cells were treated with Aβ (20 μM) alone and with M3 (50 μM) and incubated for […]. Followed by PBS washing, and stained with Mito-TG (250 nM) for 20 min. Cells were washed thrice with dPBS and imaged in live cell set up in rhodamine channel using 63× oil immersion using Leica DMi8 fluorescence microscope.
Aβ-associated functional abnormalities induced structural defects in mitochondria. The effect of M3 to prevent structural damage was assessed by staining the cells with Mito-TG, a mitochondrial probe. The cells were treated with Aβ (20 μM) alone and with M3 for 18 h, followed by Mito-TG staining and fluorescence microscopic imaging to visualize the structural changes. The Aβ treatment deformed mitochondria with fragmented morphology in comparison to the long tubular structure of healthy cells (FIG. 14C). […] Collectively, these structural and functional studies of mitochondria confirmed that M3 is a potential modulator of Aβ-induced toxicity to protect mitochondrial damage.

For the next data set, the system named is NF-kβ. Kind of data set: Western blot of NF-kβ in C6 microglia. The format is cell-based. The note with it: LPS 500 ng/mL, Aβ 5 μM, compound 10 μM; Aβ alone 2.62 fold. As for the experimental part: (§3) Western blot analysis was performed to analyse the changes in the protein levels from cell lysates. SH-SY5Y and C6 cells were cultured to 80% confluence in T25 flask, trypsinised and seed into 12 well plate. The cells were cultured for 30 h and then treated with LPS (500 ng/mL) in low serum media for 6 h. Then the cells were treated with Aβ42 (5 μM) alone and with NMIs (M3) (10 μM) for 18 h. The cells were harvested by trypsinisation and the protein was extracted in RIPA lysis buffer with protease inhibitor cocktail (1×). Briefly cells were washed with dPBS and lysed in […] of RIPA lysis buffer with gentle shaking in 4° C. for 30 min. Then the cells were centrifuged at 16000 g for 20 min and the supernatant containing protein was collected and quantified by Bradford assay. The protein lysate was subjected to SDS-PAGE (12% resolving gel) and transferred to PVDF membrane. The blot paper was blocked with 5% skim milk powder for 1 h at room temperature and then washed thrice with TBST. […] All the western blots were quantified by using ImageJ, data was plotted and analysed by GraphPad prism5.
NF-kβ is a tangible drug target for neuroinflammation and AD. […] C6 microglia were primed with LPS (500 ng/mL) followed by Aβ (5 μM) treatment to induce inflammation, which was monitored by the change in NF-kβ levels in western blot analysis (FIG. 16F).

In the next data set the test system is TNFα. Kind of data set: Western blot of TNFα in C6 microglia. It is filed as cell-based. As to conditions: LPS 500 ng/mL, Aβ 5 μM, compound 10 μM; Aβ alone 2.35 fold. Here is the method:
as §3, with “TBST. The blots were incubated with primary antibodies for 20 h at 4° C. The blots were washed thrice with TBST for 5 min and then incubated with anti-rabbit HRP-conjugated secondary antibodies for 1 h at room temperature.” for “TBST.”, “prism5. […]” for “prism5.”

T1 sequence (P05067 672-713 limits assumed): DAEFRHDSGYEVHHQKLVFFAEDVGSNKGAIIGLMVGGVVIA

`O=C1c2cccc3c(N(Cc4ccccn4)Cc4ccccn4)ccc(c23)C(=O)N1CCc1ccc(O)c(O)c1` [M3, 6-(bis(pyridin-2-ylmethyl)amino)-2-(3,4-dihydroxyphenethyl)-1H-benzo[de]isoquinoline-1,3(2H)-dione]: the “Zn-dependent Aβ aggregation” value in data set [1] is “reduce Zn-dependent Aβ aggregation”. The cell viability with SH-SY5Y cells [2] (Aβ 10 μM, Cu (II) 20 μM, NMIs 20 μM, 30 h, without compound ~62%) is 85%; in the data set with SH-SY5Y cells [2] (Cu (II)-dependent Aβ toxicity, higher concentration 50 µM, FIG. 13) it was 86%; in the data set with SH-SY5Y cells [3], around 79%. For the same molecule, the mitochondrial structure result in the data set with SH-SY5Y cells [4] is listed as “protected normal long tubular structures”. Also, the “NF-kβ level compared to control” value in the data set with NF-kβ came to 1.78 fold. Also, the “TNFα level in comparison to control” value in the data set with TNFα came to 1.47 fold.

The cell viability is a read-out of living cells in per cent, often relative to untreated cells. Higher therefore signals less harm to the cells.
